Laboratory results: paper PMC9040621 (2021)

Test system: d(CCAATTGG)2 (DNA, duplex) CCAATTGG
Assay: differential scanning calorimetry
Conditions: Na+ (sodium phosphate buffer); 100 μM DNA, compound/DNA = 1; free Tm 41.73 °C

ΔTm [°C]	Structure (SMILES)
13.88	O=c1cc(-c2ccccc2)oc2cc(O)c(O)c(O)c12
12.14	O=c1cc(-c2ccccc2)oc2cc(O)cc(O)c12
-2.07	O=c1cc(-c2ccccc2)oc2ccccc12
